This note sets out measurements from the supplement of paper PMC10883282.

± gives the standard deviation of the averaged measurements.

The subject of the assay is SW872. In words: relative viability vs DMSO control (72 h) (fraction); higher = more viable cells. In outline:
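Densities for seeding sarcoma cell lines into 384-well plates were set to give 80–90% confluence. After 24 h, 2.5 µl of serially diluted compound from source plates of 10 mM to 0.0002 mM went in, and plates stayed 72 h at 37 °C in 5% CO2 with 0.1% DMSO vehicle and a 5 µM positive control. Percent growth from ATPLite readings, averaged over up to triplicate wells, served as relative viability, rescaled so 1 means full and 0 means none.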

Take `COc1c(OCCCN2CCOCC2)ccc2c1N=C(NC(=O)c1cnc(N)nc1)N1CCN=C21` [Copanlisib]: the relative viability runs as follows: (0.00017 µM) 1.07 ± 0.03; (0.00051 µM) 1.02 ± 0.049; (0.00152 µM) 1.02 ± 0.064; (0.00457 µM) 0.817 ± 0.059; (0.01372 µM) 0.689 ± 0.037; (0.04115 µM) 0.599 ± 0.08. The relative viability turned out to be 0.425 ± 0.033 (0.1235 µM); 0.284 ± 0.0047 (0.3704 µM); 0.193 ± 0.013 (1.111 µM); 0.16 ± 0.006 (3.333 µM); 0.149 ± 0.015 (10 µM).

Take `CN1CCN(c2ccc3nc(-c4c(N)c5c(F)cccc5[nH]c4=O)[nH]c3c2)CC1` [Dovitinib]: the relative viability is, setting by setting: (0.00017 µM) 1.05 ± 0.054; (0.00051 µM) 1.04 ± 0.022; (0.00152 µM) 1.06 ± 0.015; (0.00457 µM) 1.08 ± 0.018; (0.01372 µM) 1.06 ± 0.045; (0.04115 µM) 1.05 ± 0.025. In addition, the relative viability (0.1235 µM) is 0.937 ± 0.097; the relative viability (0.3704 µM) was found to be 0.891 ± 0.067; the relative viability (1.111 µM) was determined as 0.604 ± 0.03; the relative viability (3.333 µM) is 0.402 ± 0.023; the relative viability (10 µM) amounted to 0.235 ± 0.022.

With `COCc1c(-c2cc3cc(C)cc(OC)c3s2)c2c(N)ncnn2c1CN1CCNC(=O)C1` [Rogaratinib], the relative viability is 1.08 ± 0.043 (0.00017 µM); 1.07 ± 0.012 (0.00051 µM); 1.06 ± 0.045 (0.00152 µM); 1.03 ± 0.013 (0.00457 µM); 1.003 ± 0.0078 (0.01372 µM); 1.03 ± 0.011 (0.04115 µM). For the same compound, the relative viability reads like this: (0.1235 µM) 1.03 ± 0.026; (0.3704 µM) 0.992 ± 0.028; (1.111 µM) 0.952 ± 0.02; (3.333 µM) 0.815 ± 0.051; (10 µM) 0.513 ± 0.0093.

`CN1CCC(COc2cnc(-c3cccc(Cn4nc(-c5cccc(C#N)c5)ccc4=O)c3)nc2)CC1` [Tepotinib]: the relative viability is, setting by setting: (0.00017 µM) 1.057 ± 0.008; (0.00051 µM) 1.07 ± 0.02; (0.00152 µM) 1.05 ± 0.037; (0.00457 µM) 1.04 ± 0.022; (0.01372 µM) 1.03 ± 0.038; (0.04115 µM) 1.01 ± 0.022. The compound also yielded a relative viability (0.1235 µM) of 1.04 ± 0.016; a relative viability (0.3704 µM) of 1.02 ± 0.043; a relative viability (1.111 µM) of 0.999 ± 0.019; a relative viability (3.333 µM) of 0.972 ± 0.039; a relative viability (10 µM) of 0.918 ± 0.033.
